The subject of one experiment is isolated rat hearts. The experiment can be described thus: Ischemia-reperfusion in isolated rat heart (Langendorff). The settings on record: 100 µM, TTC staining.
The subject of experiment [1] is cardiomyocytes isolated from mdx mice. The experiment can be described thus: NOX2-mediated ROS production (DCF-DA, confocal) in mdx cardiomyocytes. The experiment is classed as cell-based, mouse. The settings on record: 20 µM. The text has this: Cardiomyocytes were isolated from mdx mice (C57BL/10ScSn-DMDmdx/J, stock number 001801M, Jackson Laboratories, Bar Harbor, […], USA). Male mdx mice of 19 months of age were used, which were housed in individual cages with water and food ad libitum. All the procedures were adjusted to the “Guide for the Care and Use of Laboratory Animals” (1996) of the National Institute of Health and were approved by the Institutional Committee for Animal Care and Use of the Universidad de Talca. Mice were pre-medicated with heparin i.p. (200U.) and then sacrificed by cervical dislocation. The heart was rapidly removed, cannulated through the aorta, and retrogradely perfused in a steady flow (2 mL/min) at 37 °C. The hearts were initially perfused for 10 min with a Ca^2+-free bicarbonate buffer solution containing (in mM) 120 NaCl; 5.4 KCl; 1.2 MgSO4; 1.2 NaH2PO4; 5.6 glucose; 20 NaHCO3; 10 BDM, and 5 taurine, bubbled with a 95% O2–5% CO2 mixture. Enzyme digestion was performed with collagenase type II (1 mg/mL; Worthington Biochemical Corp., Lakewood, NJ, USA) and protease type XIV (0.1 mg/mL; Sigma-Aldrich) as previously reported. Isolated cardiomyocytes were transferred to 1.5 mL Eppendorf tubes and preincubated with the heteroaryl acrylonitrile compounds.
Cardiomyocytes isolated from mdx mice were transferred to Eppendorf tubes to be incubated with 1 μM of the indole heteroaryl-acrylonitrile derivatives for 30 min, protected from light, at room temperature. VAS2870 (20 μM) was used as a positive control for NOX2 inhibition. 2′,7′-dichlorofluorescein diacetate (DCF-DA) (10 μM) was then added and incubated for 15 min. Subsequently, it was allowed to sediment by gravity to remove the supernatant, and the pellets obtained were in a phosphate saline solution (PBS). 200 μL of the cell suspension were placed on pre-treated polylysine slides (Thermo Fischer, USA) and fixed with 2% paraformaldehyde (Sigma-Aldrich®, St. Louis, MO, USA) for 10 min at 4 °C. […] From the acquired images, the fluorescence intensity was quantified at 495 nm, and the data were reported as fluorescence intensity per pixel.

Another experiment has as its target T1, p47^phox (Homo sapiens, UniProt P14598).
T1 construct: we evaluated p47^phox translocation from the cytosol to the membrane in HL-60 differentiated cells; endogenous in cells; host or cells: neutrophil-differentiated HL-60 cells treated with PMA; membrane and cytosolic fractions obtained by cryo-fracture
T1 sequence (P14598 1-390): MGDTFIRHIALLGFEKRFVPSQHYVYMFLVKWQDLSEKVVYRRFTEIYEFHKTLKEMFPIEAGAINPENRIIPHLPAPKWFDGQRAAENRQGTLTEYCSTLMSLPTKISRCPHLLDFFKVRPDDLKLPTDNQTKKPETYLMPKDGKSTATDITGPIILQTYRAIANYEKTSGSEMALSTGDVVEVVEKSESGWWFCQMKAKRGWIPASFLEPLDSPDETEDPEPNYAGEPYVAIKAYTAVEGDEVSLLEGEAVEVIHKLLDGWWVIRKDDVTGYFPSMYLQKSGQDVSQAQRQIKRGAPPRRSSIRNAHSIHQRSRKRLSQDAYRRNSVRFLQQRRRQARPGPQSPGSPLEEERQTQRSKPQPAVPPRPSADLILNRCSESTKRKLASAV
The experiment can be described thus: p47phox translocation from cytosol to membrane (Western blot) in PMA-stimulated HL-60 differentiated cells. The experiment is classed as cell-based. The settings on record: PMA 0.8 µM, 20 µM. Here is the method: Neutrophil-differentiated HL-60 cells (2 × 10^6 cells/mL) were incubated at 37 °C in a humid atmosphere with 5% CO2 and 50 μM of the different acrylonitrile compounds, then PMA 0.8 μM was added and incubated for 1 h to induce the activation of the enzyme NADPH oxidase. As a positive inhibition control, VAS2870 (20 μM) was used. Another two controls were performed: one with cells activated by PMA in the presence of DMSO, and the other (NA, non-activated) with cells in the absence of PMA and the acrylonitrile compounds. In 15 mL conical tubes, 5 mL of cell suspension from each treatment and control condition was transferred at 2 × 10^6 cells/mL and centrifuged at 1000 rpm at 4 °C for 10 min. The supernatant was then discarded, and each pellet was re-suspended in 2 mL of a 4% PBS solution with 2 mM EGTA and 0.25 mM PMSF frozen at −80 °C for 10 min. Then each pellet was thawed on ice. After this, the cell suspension was passed through a glass tissue homogenizer (Deltalab®, I.C.T, S.L, La Rioja, Spain) 20 times. The freezing-thawing and homogenization processes were repeated three times. Finally, the homogenate was centrifuged at 15,000 rpm at 4 °C for 15 min. The supernatant (cytosolic fraction) was removed from the pellet (membranes were prepared). A fraction was removed for the determination of total proteins, and the remainder was stored at −80 °C for further analysis. […]
(A western blot detects proteins with antibodies after separation by electrophoresis.)

Turning to `COc1cc(C(C)=O)ccc1O` [apocynin], the “infarcted area (in words)” value in the experiment with isolated rat hearts was “reduced the infarcted area”.

With `c1ccc(Cn2nnc3c(Sc4nc5ccccc5o4)ncnc32)cc1` [VAS2870, 7-(1,3-Benzoxazol-2-ylsulfanyl)-3-benzyl-3H-[1,2,3]triazolo [4,5-d]pyrimidine, reference compound], in experiment [1], the “NOX2-derived ROS, DCF (in words)” value was “reduced”. Further, the “translocation of p47phox to the membrane (in words)” value at p47^phox was “significantly reduced the translocation of p47^phox to the membrane”.

For the origin of these results see paper PMC10376059, “New NADPH Oxidase 2 Inhibitors Display Potent Activity against Oxidative Stress by Targeting p22^phox-p47^phox Interactions” (Antioxidants, 2023).
